Several values for one entry are separate records, joined by “and”; a condition that tells them apart may be missing. Equal entries are not always repeated.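 Dose response: 5 concentrations. Exposure: 48 h. Format: 96-well plates. Endpoint: linear interpolation; highest concentration if not reached. GI50 = concentration required for 50% inhibition of growth.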 Activity calls are given as the source filed them. No stated cut-off is given here; in the data, active = GI50 up to about 1.1 µM and inactive = higher.
Columns and labels:
Experiment in all cases: NCI tumour cell line growth inhibition, 48 h
[1] = system: HOP-62
[2] = system: UACC-257
[3] = system: IGROV-1
[4] = system: 786-0
[5] = system: NCI-H23
[6] = system: Malme-3M
[7] = system: NCI/ADR-RES
[8] = system: LOX IMVI
[9] = system: OVCAR-8
[10] = system: OVCAR-3
[11] = system: DU-145
[12] = system: EKVX
[13] = system: MCF7
[14] = system: RPMI-8226
[15] = system: HCT-15
[16] = system: UO-31
[17] = system: SW-620
[18] = system: OVCAR-5
[19] = system: SK-MEL-28
[20] = system: RXF 393

SMILES | GI50 [1] | GI50 [2] | GI50 [3] | GI50 [4] | GI50 [5] | GI50 [6] | GI50 [7] | GI50 [8] | GI50 [9] | GI50 [10] | GI50 [11] | GI50 [12] | GI50 [13] | GI50 [14] | GI50 [15] | GI50 [16] | GI50 [17] | GI50 [18] | GI50 [19] | GI50 [20]
CC(C)=NN/C(=N\c1ccc(Cl)cc1)NS(=O)(=O)c1ccc(C)cc1 | 69 µM (inactive) | 35.2 µM (inactive) | 77.4 µM (inactive) | 62.4 µM (inactive) | > 100 µM (inactive) | 61.2 µM (inactive) | 69.3 µM (inactive) | 87.7 µM (inactive) | > 100 µM (inactive) | 31.1 µM (inactive) | 47.9 µM (inactive) | 52.6 µM (inactive) | 58.5 µM (inactive) | 44.2 µM (inactive) | > 100 µM | > 100 µM (inactive) | > 100 µM (inactive) | > 100 µM (inactive) | 85.5 µM (inactive) | 
O=C(c1ccccc1)c1ccc2[nH]c(-c3c(Cl)c(Cl)c(Cl)c(Cl)c3C(=O)Nc3ccco3)nc2c1 | 45.3 µM (inactive) | 45.7 µM (inactive) | 41.1 µM (inactive) | 96.2 µM (inactive) | 4.86 µM (inactive) |  | 16.4 µM (inactive) | 38.1 µM (inactive) | 60.3 µM (inactive) | 49.4 µM (inactive) | 78.9 µM (inactive) | 67 µM (inactive) | 24.8 µM (inactive) | 19.8 µM (inactive) | 27.2 µM | 51.5 µM (inactive) | 37.8 µM (inactive) | > 100 µM (inactive) | 81.1 µM (inactive) | 41.8 µM (inactive)
Nc1nncc2[nH]nnc12 | > 100 µM (inactive) | > 100 µM (inactive) | > 100 µM (inactive) | > 100 µM (inactive) | > 100 µM (inactive) |  | > 100 µM (inactive) |  | > 100 µM (inactive) | > 100 µM (inactive) | > 100 µM (inactive) | > 100 µM (inactive) | > 100 µM (inactive) | > 100 µM (inactive) | > 100 µM | > 100 µM (inactive) | 83.6 µM (inactive) | > 100 µM (inactive) | > 100 µM (inactive) | > 100 µM (inactive)
Cc1ccccc1/N=N/c1c(O)ccc2ccccc12 | 48.1 µM (inactive) | > 100 µM (inactive) | 59.2 µM (inactive) | 48.9 µM (inactive) | > 100 µM (inactive) | > 100 µM (inactive) | > 100 µM (inactive) | 40.5 µM (inactive) | > 100 µM (inactive) | > 100 µM (inactive) | > 100 µM (inactive) | 47.6 µM (inactive) |  | > 100 µM (inactive) | > 100 µM | > 100 µM (inactive) | > 100 µM (inactive) | > 100 µM (inactive) | > 100 µM (inactive) | > 100 µM (inactive)
CCCC1(CCC)c2cc(/C=N\O)ccc2-c2ccc(-c3ccc(C(C)(C)C)cc3)cc21 | > 100 µM (inactive) | 93.1 µM (inactive) | 61.9 µM (inactive) | 37.4 µM (inactive) | 48.3 µM (inactive) | > 100 µM (inactive) | 53.8 µM (inactive) | 32.7 µM (inactive) | 32.5 µM (inactive) | 22.9 µM (inactive) | > 100 µM (inactive) | 56.8 µM (inactive) | 25.6 µM (inactive) | 33.7 µM (inactive) | > 100 µM | > 100 µM (inactive) | 34.2 µM (inactive) | > 100 µM (inactive) | 26.7 µM (inactive) | 
COC1=CC2=NCCc3n[nH]c(c32)C1=O | 31.7 µM (inactive) | 15.6 µM (inactive) | 19.1 µM (inactive) | 18.5 µM (inactive) | 14.4 µM (inactive) | 16.3 µM (inactive) | 29.1 µM (inactive) | 2.35 µM (inactive) | 15.2 µM (inactive) | 15.9 µM (inactive) |  | 16.9 µM (inactive) | 4.86 µM (inactive) | 11.5 µM (inactive) | 46.3 µM | 24.7 µM (inactive) | 13.6 µM (inactive) | 18.5 µM (inactive) | 18.1 µM (inactive) | 
ClC1=C(Cl)C2OC3C=CCC3OC2C(Cl)=C1Cl (stereo not given) | > 100 µM (inactive) | 34.5 µM (inactive) | > 100 µM (inactive) | > 100 µM (inactive) | 56.4 µM (inactive) |  | 53.6 µM (inactive) | 52 µM (inactive) | > 100 µM (inactive) | > 100 µM (inactive) | > 100 µM (inactive) | 44.1 µM (inactive) | 0.429 µM (active) | 23 µM (inactive) | 32.1 µM | > 100 µM (inactive) | 41.2 µM (inactive) | > 100 µM (inactive) | > 100 µM (inactive) | 28.4 µM (inactive)
CCN(CC)CCN1CCN=C2c3cc(OC)ccc3Nc3c([N+](=O)[O-])ccc1c32 | 0.56 µM (active) | 2.59 µM (inactive) | 1.72 µM (inactive) | 0.369 µM (active) | 1.1 µM (active) | 1.54 µM (inactive) |  | 1.41 µM (inactive) | 0.441 µM (active) |  | 2.8 µM (inactive) | 1.69 µM (inactive) | 0.551 µM (active) | 0.64 µM (active) | 0.845 µM |  | 0.449 µM (active) |  | 1 µM (active) | 0.843 µM (active)
CC(=O)c1c(O)ccc2c1c1c(n2C)C(=O)c2ccccc2C1=O | 6.53 µM (inactive) | > 100 µM (inactive) | 1.82 µM (inactive) | 4.9 µM (inactive) |  | 0.0128 µM (active) |  | 3.24 µM (inactive) | 5.3 µM (inactive) | 1.81 µM (inactive) | 3.21 µM (inactive) | 3.24 µM (inactive) | 1.69 µM (inactive) | 1.46 µM (inactive) | > 100 µM |  |  | > 100 µM (inactive) | 2.99 µM (inactive) | 3.84 µM (inactive)
CN1CCN(/C(N)=C(\C#N)C(=O)Nc2ccc(Cl)cc2)CC1 | > 100 µM (inactive) | 59 µM (inactive) | 99.1 µM (inactive) | 95.5 µM (inactive) | 67 µM (inactive) |  | 87.9 µM (inactive) | 47.9 µM (inactive) | > 100 µM (inactive) | 41.7 µM (inactive) | 79.3 µM (inactive) | 78.2 µM (inactive) | 68.4 µM (inactive) | 27.5 µM (inactive) | 57.9 µM | 55.1 µM (inactive) | > 100 µM (inactive) | > 100 µM (inactive) | 46.6 µM (inactive) | 
CCOC1CN(C)/C(=N\c2cccc3ccccc23)S1 (stereo not given) | > 10 µM (inactive) | > 10 µM (inactive) | > 10 µM (inactive) | > 10 µM (inactive) | > 10 µM (inactive) | > 10 µM (inactive) | > 10 µM (inactive) | > 10 µM (inactive) | > 10 µM (inactive) | > 10 µM (inactive) | > 10 µM (inactive) | > 10 µM (inactive) | > 10 µM (inactive) | > 10 µM (inactive) | > 10 µM | > 10 µM (inactive) | > 10 µM (inactive) | > 10 µM (inactive) | > 10 µM (inactive) | 
COC(=O)CC1C2CC3C(C2=O)C13 (stereo not given) | > 100 µM (inactive) | > 100 µM (inactive) | > 100 µM (inactive) | > 100 µM (inactive) | > 100 µM (inactive) | > 100 µM (inactive) | > 100 µM (inactive) | > 100 µM (inactive) | > 100 µM (inactive) | > 100 µM (inactive) | > 100 µM (inactive) | > 100 µM (inactive) | > 100 µM (inactive) |  | > 100 µM | > 100 µM (inactive) | > 100 µM (inactive) | > 100 µM (inactive) | > 100 µM (inactive) | > 100 µM (inactive)
COc1cc(Br)cc2cc(-c3cn4c(n3)sc3ccccc34)c(=O)oc12 | 22.7 µM (inactive) | 38.5 µM (inactive) | 14.7 µM (inactive) | 25.1 µM (inactive) | 21.2 µM (inactive) |  | 30.7 µM (inactive) | 18.4 µM (inactive) | 28.6 µM (inactive) | 20 µM (inactive) | 17.7 µM (inactive) | 14.5 µM (inactive) | 35.6 µM (inactive) | 21.6 µM (inactive) | 23.6 µM | 18.7 µM (inactive) | 20.8 µM (inactive) | 39 µM (inactive) |  | 
NC(=O)NC(=O)CCC(NS(=O)(=O)c1ccccc1)C(=O)NC(N)=O (stereo not given) | > 100 µM (inactive) | > 100 µM (inactive) | > 100 µM (inactive) | > 100 µM (inactive) | > 100 µM (inactive) | > 100 µM (inactive) | > 100 µM (inactive) | > 100 µM (inactive) | > 100 µM (inactive) | > 100 µM (inactive) | > 100 µM (inactive) | > 100 µM (inactive) | > 100 µM (inactive) |  | > 100 µM | > 100 µM (inactive) | > 100 µM (inactive) | > 100 µM (inactive) | > 100 µM (inactive) | 
O=S(=O)(O)c1cc(/N=N/c2c(O)ccc3ccccc23)c2c(S(=O)(=O)O)cccc2c1 | > 100 µM (inactive) | > 100 µM (inactive) | > 100 µM (inactive) | > 100 µM (inactive) | > 100 µM (inactive) | > 100 µM (inactive) | > 100 µM (inactive) |  | > 100 µM (inactive) | > 100 µM (inactive) |  | > 100 µM (inactive) | > 100 µM (inactive) | > 100 µM (inactive) | > 100 µM | > 100 µM (inactive) | > 100 µM (inactive) | > 100 µM (inactive) | > 100 µM (inactive) | > 100 µM (inactive)
COc1cc(-c2oc3c(OC)c(OC)cc(O)c3c(=O)c2OC)ccc1O [TERNATIN] |  | > 100 µM (inactive) | 4.89 µM (inactive) and 4.1 µM (inactive) | 6.32 µM (inactive) and 12 µM (inactive) |  | 13.1 µM (inactive) and 9.59 µM (inactive) | 38.8 µM (inactive) |  | 20.7 µM (inactive) | 11.7 µM (inactive) | 7.43 µM (inactive) | 11.4 µM (inactive) | 21.1 µM (inactive) |  | 4.54 µM and 6.24 µM |  |  | 34.6 µM (inactive) |  | 6.18 µM (inactive) and 3.87 µM (inactive)
